Source: ChEMBL document CHEMBL2073757, “Effect of flavonoids on MRP1-mediated transport in Panc-1 cells” (J Pharm Sci, 2003)

Experiments:
Type in all cases: functional, cell-based
[1] = target: T1, Multidrug resistance-associated protein 1 (Homo sapiens, UniProt P33527); assay: TP_TRANSPORTER: increase in Vinblastine intracellular accumulation (Vinblastine: 0.05 uM, Phloretin: 100 uM) in PANC-1 cells; conditions: panc-1, 100 µM
[2] = target: T1, Multidrug resistance-associated protein 1; assay: TP_TRANSPORTER: increase in Daunomycin intracellular accumulation (Daunomycin: 0.05 uM, Phloretin: 100 uM) in PANC-1 cells; conditions: panc-1, 100 µM
[3] = target: T1, Multidrug resistance-associated protein 1; assay: TP_TRANSPORTER: increase in Vinblastine intracellular accumulation (Vinblastine: 0.05 uM, Silymarin: 100 uM) in Panc-1 cells; conditions: panc-1, 100 µM
[4] = target: T1, Multidrug resistance-associated protein 1; assay: TP_TRANSPORTER: increase in Daunomycin intracellular accumulation (Daunomycin: 0.05 uM, Silymarin: 100 uM) in Panc-1 cells; conditions: panc-1, 100 µM
[5] = target: T1, Multidrug resistance-associated protein 1; assay: TP_TRANSPORTER: increase in Vinblastine intracellular accumulation (Vinblastine: 0.05 uM, Genistein: 100 uM) in Panc-1 cells; conditions: panc-1, 100 µM
[6] = target: T1, Multidrug resistance-associated protein 1; assay: TP_TRANSPORTER: increase in Daunomycin intracellular accumulation (Daunomycin: 0.05 uM, Genistein: 100 uM) in Panc-1 cells; conditions: panc-1, 100 µM
[7] = target: T1, Multidrug resistance-associated protein 1; assay: TP_TRANSPORTER: increase in Vinblastine intracellular accumulation (Vinblastine: 0.05 uM, Morin: 100 uM) in Panc-1 cells; conditions: panc-1, 100 µM
[8] = target: T1, Multidrug resistance-associated protein 1; assay: TP_TRANSPORTER: increase in Daunomycin intracellular accumulation (Daunomycin: 0.05 uM, Morin: 100 uM) in Panc-1 cells; conditions: panc-1, 100 µM
[9] = target: T1, Multidrug resistance-associated protein 1; assay: TP_TRANSPORTER: increase in Vinblastine intracellular accumulation (Vinblastine: 0.05 uM, BiochaninA: 101 uM) in Panc-1 cells; conditions: panc-1, 101 µM
[10] = target: T1, Multidrug resistance-associated protein 1; assay: TP_TRANSPORTER: increase in Daunomycin intracellular accumulation (Daunomycin: 0.05 uM, BiochaninA: 100 uM) in Panc-1 cells; conditions: panc-1, 100 µM
[11] = target: T1, Multidrug resistance-associated protein 1; assay: TP_TRANSPORTER: increase in Vinblastine intracellular accumulation (Vinblastine: 0.05 uM, Chrysin: 100 uM) in Panc-1 cells; conditions: panc-1, 100 µM
[12] = target: T1, Multidrug resistance-associated protein 1; assay: TP_TRANSPORTER: increase in Daunomycin intracellular accumulation (Daunomycin: 0.05 uM, Chrysin: 100 uM) in Panc-1 cells; conditions: panc-1, 100 µM

T1 sequence (P33527 whole entry): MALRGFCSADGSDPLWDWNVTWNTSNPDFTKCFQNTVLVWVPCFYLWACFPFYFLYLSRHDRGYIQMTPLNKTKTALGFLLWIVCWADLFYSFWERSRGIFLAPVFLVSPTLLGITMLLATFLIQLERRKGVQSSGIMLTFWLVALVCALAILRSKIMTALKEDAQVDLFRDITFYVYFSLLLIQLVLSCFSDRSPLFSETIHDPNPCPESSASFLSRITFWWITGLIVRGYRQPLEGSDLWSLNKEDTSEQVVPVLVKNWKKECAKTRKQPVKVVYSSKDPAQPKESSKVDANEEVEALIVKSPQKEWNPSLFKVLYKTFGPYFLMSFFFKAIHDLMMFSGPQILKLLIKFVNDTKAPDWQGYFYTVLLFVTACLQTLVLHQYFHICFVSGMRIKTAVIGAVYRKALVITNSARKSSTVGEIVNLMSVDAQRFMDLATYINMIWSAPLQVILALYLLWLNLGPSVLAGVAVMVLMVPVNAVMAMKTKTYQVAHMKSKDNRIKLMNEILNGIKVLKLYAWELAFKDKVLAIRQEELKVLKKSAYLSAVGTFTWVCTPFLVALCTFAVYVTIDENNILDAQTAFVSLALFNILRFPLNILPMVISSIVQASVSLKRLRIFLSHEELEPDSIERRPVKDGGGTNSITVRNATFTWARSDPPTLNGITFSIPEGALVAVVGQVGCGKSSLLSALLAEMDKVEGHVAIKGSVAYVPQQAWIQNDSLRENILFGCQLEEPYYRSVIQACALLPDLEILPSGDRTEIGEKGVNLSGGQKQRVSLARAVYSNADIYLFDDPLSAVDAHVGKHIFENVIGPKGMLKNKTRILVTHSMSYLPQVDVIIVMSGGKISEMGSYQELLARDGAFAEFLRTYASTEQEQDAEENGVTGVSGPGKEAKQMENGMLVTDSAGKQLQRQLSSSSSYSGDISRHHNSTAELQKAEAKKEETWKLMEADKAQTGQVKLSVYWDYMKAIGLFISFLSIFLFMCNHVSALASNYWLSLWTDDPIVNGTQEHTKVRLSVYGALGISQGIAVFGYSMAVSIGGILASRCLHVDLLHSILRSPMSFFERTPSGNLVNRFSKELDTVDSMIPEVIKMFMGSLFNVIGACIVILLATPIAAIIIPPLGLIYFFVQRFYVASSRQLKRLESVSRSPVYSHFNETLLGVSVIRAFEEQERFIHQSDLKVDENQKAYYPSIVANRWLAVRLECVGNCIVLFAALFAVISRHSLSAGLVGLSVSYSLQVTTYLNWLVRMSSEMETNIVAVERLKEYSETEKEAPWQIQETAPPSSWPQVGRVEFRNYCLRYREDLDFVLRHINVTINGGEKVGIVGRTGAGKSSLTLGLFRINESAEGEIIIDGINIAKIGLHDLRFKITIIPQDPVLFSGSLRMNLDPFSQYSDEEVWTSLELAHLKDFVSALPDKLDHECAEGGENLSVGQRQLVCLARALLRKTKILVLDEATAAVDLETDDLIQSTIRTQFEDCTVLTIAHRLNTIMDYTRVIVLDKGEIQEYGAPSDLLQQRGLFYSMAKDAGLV

Compound: O=C(CCc1ccc(O)cc1)c1c(O)cc(O)cc1O [PHLORETIN]
- Activity [1]: 251%
- Activity [2]: 295%

Compound: SILYMARIN
- Activity [3]: 329%
- Activity [4]: 305%

Compound: O=c1c(-c2ccc(O)cc2)coc2cc(O)cc(O)c12 [GENISTEIN]
- Activity [5]: 191%
- Activity [6]: 156%

Compound: O=c1c(O)c(-c2ccc(O)cc2O)oc2cc(O)cc(O)c12 [MORIN]
- Activity [7]: 553%
- Activity [8]: 546%

Compound: COc1ccc(-c2coc3cc(O)cc(O)c3c2=O)cc1 [BIOCHANIN]
- Activity [9]: 330%
- Activity [10]: 178%

Compound: O=c1cc(-c2ccccc2)oc2cc(O)cc(O)c12 [CHRYSIN]
- Activity [11]: 180%
- Activity [12]: 198%
